Test results: US20150119327A1, “DRUG SCREENING PLATFORM FOR RETT SYNDROME” (THE REGENTS OF THE UNIVERSITY OF CALIFORNIA, priority 2012, published 2015)

What was measured:
TRPC6 = target: T1, TRPC6 (Homo sapiens, UniProt Q9Y210); details: cited from earlier work
T1 sequence (Q9Y210 1-931): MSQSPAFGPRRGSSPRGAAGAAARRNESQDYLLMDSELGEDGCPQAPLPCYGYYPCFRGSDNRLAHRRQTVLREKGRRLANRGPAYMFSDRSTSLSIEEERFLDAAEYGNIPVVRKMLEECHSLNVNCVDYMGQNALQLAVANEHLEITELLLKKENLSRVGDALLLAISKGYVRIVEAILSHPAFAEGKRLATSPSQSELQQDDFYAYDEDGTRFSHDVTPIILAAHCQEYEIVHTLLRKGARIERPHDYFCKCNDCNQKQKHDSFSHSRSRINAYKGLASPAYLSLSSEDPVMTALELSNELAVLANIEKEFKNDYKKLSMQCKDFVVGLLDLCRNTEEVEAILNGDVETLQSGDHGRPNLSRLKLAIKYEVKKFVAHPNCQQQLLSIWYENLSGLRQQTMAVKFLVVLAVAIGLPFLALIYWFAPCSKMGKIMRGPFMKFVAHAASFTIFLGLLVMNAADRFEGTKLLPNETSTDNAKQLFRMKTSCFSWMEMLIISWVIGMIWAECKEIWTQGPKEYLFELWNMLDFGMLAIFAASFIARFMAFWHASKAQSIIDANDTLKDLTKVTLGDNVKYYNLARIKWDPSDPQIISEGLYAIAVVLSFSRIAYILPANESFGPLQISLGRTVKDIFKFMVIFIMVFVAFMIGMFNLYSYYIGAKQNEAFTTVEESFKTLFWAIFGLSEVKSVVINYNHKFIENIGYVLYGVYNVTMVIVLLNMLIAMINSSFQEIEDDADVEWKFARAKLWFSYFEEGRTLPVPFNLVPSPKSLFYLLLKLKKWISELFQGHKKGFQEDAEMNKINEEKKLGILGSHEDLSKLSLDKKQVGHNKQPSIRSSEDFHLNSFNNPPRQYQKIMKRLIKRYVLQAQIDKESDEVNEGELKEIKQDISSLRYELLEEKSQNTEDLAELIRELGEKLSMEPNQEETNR

TRPC6-mutant neurons = test: VGLUT1 puncta / glutamatergic synapse number in TRPC6-mutant neurons (rescue); format: cell-based, human; details: 10 ηg/mL for two weeks
Method: Neuronal tracing was performed on neurons for which that the shortest dendrite was at least three-times longer than the cell soma diameter, using a semi-automatic ImageJ plug-in (NeuroJ). Spines and VGLUT1 puncta were quantified after three-dimensional reconstruction of z-stack confocal images. Only neurons with spines were scored. Pictures were taken randomly for each individual and from two different experiments, using at least two different clones. Quantification was done blindly to the genotype of the cells. All experiments were performed with independent clones and different controls. For the rescue experiments, 10 ηg/mL of IGF1 (Peprotech) was added to neuronal cultures for 2 weeks.

human neurons [1] = test: Synapse quantification by Odyssey in-cell western in 96- or 24-well plates; format: cell-based; details: preliminary data
Text: Fibroblasts from patients are reprogrammed to a pluripotent state and further differentiated into neuro progenitor cells (NPCs). These NPCs can be expanded in appropriated culture conditions and, under the right signals, induced to differentiated into postmitotic neurons (see schematic; FIG. 11). Several adjustments were done on the neuronal differentiation protocol, reducing by half the time needed to generate neurons from NPCs. Such adjustments include specific factors and cell manipulations at different stages of the protocol. At this stage, disease neurons can reveal a phenotype that is related to the mutations on the MeCP2 gene. We focused on synapse quantification. Instead of manual synapse counting, we are using an Odyssey machine that can estimate the number of synapses by detecting specific wavelengths in a 96- or 24-well plates (see FIG. 11). […] Alternatively, we are using specific synaptic tools to visualize synaptogeneses in real time that could be detected by any time-lapse fluorescence microscope.

human neurons [2] = details: cited from earlier work
RTT-like symptoms = details: mouse model; cited from earlier work
K^+ current = test: Whole-cell patch clamp recording of K+ current in iPSC-derived neuron; format: cell-based, human; details: 20 mM
Method: Whole-cell patch clamp recordings were performed from cells cultured in the absence of astrocytes after approximately 6 weeks of differentiation. Before recordings, the growth media was removed and replaced with a bath solution comprised of (in mM): 130 NaCl, 3 KCl, 1 CaCl2, 1 MgCl2, HEPES, and 10 glucose (pH 7.4) at room temperature (22-24° C.). Electrodes for whole cell recording were pulled on a Flaming/Brown micropipette puller (Model P-87, Sutter Instrument, Novato, Calif.) from filamented borosilicate capillary glass (1.2 mm OD, 0.69 mm ID, World Precision Instruments, Sarasota, Fla.). The electrodes were fire-polished, and resistances were typically 2-5 MΩ for voltage-clamp experiments and 7-9 MΩ for current-clamp experiments. The pipette solution contained (in mM): 138 KCl, 0.2 CaCl2, 1 MgCl2, 10 HEPES (Na^+ salt), and 10 EGTA, (pH 7.4). The osmolarity of all solutions was adjusted to 290 mOsM. All chemicals were purchased from Sigma-Aldrich (St. Louis, Mo.) except MgCl2 (J.T. Baker, Phillipsburg, N.J.). Current traces in voltage clamp were leak-subtracted. Liquid junction potentials were nulled for each individual cell with the Axopatch 1C amplifier (Molecular Devises, Sunnyvale, Calif.).

Na^+ current = format: cell-based, human

For O=C(O)c1ccccc1Nc1cccc(C(F)(F)F)c1 [FFA, flufenamic acid], the “currents through TRPC6 channel” value (TRPC6) is listed as “increases the amplitude”.
In the case of “IGF-1: Insulin-like growth factor 1 (IGF-1), also referred to as somatomedin C”, the glutamatergic synapse number (TRPC6-mutant neurons) is given as “increase”, the “synapse number estimate (Odyssey), response to drug” value (human neurons [1]) is given as “small alterations” and the RTT-like symptoms (human neurons [2]) is given as “reversal”. For the same molecule, the synapse number (human neurons [2]) was “increase” and the RTT-like symptoms (RTT-like symptoms) was “reversal”.
In the case of CC(C)=CCC[C@]1(C)[C@@H](CC=C(C)C)C[C@@]2(CC=C(C)C)C(=O)[C@]1(C(=O)C(C)C)C(=O)C(CC=C(C)C)=C2O [Hyperforin, hyperforin], the TRPC6 activation (TRPC6) is given as “specifically activates”.
In the case of CC[N+](CC)(CC)CC [tetraethalammonium (TEA), tetraethalammonium], the “K^+ current” value (K^+ current) is reported as “blocked”.
In the case of NC1=N[C@H](O)[C@H]2[C@H]3O[C@]4(O)O[C@@H]([C@@H](O)[C@@]2(N1)[C@@H]4O)[C@]3(O)CO [Tetrodotoxin (TTX), Tetrodotoxin], the “Na^+ current” value (Na^+ current) is reported as “blocked”.
